# In patent US7915270B2, “Oxazole ketones as modulators of fatty acid amide hydrolase” (The Scripps Research Institute, priority 2006, dated 2011):
# pIC50, pKi: −log10 of the molar value.
# Experiments:
# Rat FAAH = target: T1, Rat FAAH (Rattus norvegicus, UniProt P97612); assay: Assay Method 2: FAAH assay, 3H-anandamide hydrolysis in cell homogenate (SK-N-MC cells transfected with rat FAAH); type: biochemical; conditions: 3H-AEA 80 nM, rt 1 h, pH 9
# T1 construct: expressed in transfected cells
# T1 sequence (P97612 1-579): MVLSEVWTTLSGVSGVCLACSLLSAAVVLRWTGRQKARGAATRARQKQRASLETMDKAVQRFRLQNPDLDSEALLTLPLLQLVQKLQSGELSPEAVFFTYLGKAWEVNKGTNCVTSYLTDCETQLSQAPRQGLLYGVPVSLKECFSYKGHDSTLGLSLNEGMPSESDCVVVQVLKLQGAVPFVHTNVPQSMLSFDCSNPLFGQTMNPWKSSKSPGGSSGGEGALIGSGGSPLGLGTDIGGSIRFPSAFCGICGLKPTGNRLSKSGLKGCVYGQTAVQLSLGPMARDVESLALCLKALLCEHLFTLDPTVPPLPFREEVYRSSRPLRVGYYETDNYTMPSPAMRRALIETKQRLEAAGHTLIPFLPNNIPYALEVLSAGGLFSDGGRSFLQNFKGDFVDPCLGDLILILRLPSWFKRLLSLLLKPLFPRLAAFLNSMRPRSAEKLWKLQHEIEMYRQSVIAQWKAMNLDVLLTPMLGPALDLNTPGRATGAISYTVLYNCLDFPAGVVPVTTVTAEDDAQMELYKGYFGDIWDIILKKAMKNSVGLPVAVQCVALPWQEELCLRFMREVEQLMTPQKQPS
# Description: A. Transfection of Cells with Rat FAAH
# (§1) A 10-cm tissue culture dish with a confluent monolayer of SK—N-MC cells was split 2 days (d) prior to transfection. Using sterile technique, the media was removed and the cells were detached from the dish by the addition of trypsin. One fifth of the cells were then placed onto a new 10-cm dish. Cells were grown in a 37° C. incubator with 5% CO2 in Minimal Essential Media Eagle with 10% Fetal Bovine Serum. After 2 d, cells were approximately 80% confluent. These cells were removed from the dish with trypsin and pelleted in a clinical centrifuge. The pellet was re-suspended in 400 μL complete media and transferred to an electroporation cuvette with a 0.4 cm gap between the electrodes. Supercoiled rat FAAH cDNA (1 μg) was added to the cells and mixed. The voltage for the electroporation was set at 0.25 kV, and the capacitance was set at 960 μF. After electroporation, the cells were diluted into complete media (10 mL) and plated onto four 10-cm dishes. Because of the variability in the efficiency of electroporation, four different concentrations of cells were plated. The ratios used were 1:20, 1:10, and 1:5, with the remainder of the cells being added to the fourth dish. The cells were allowed to recover for 24 h before adding the selection media (complete media with 600 μg/mL G418). After 10 d, dishes were analyzed for surviving colonies of cells. Dishes with well-isolated colonies were used. Cells from individual colonies were isolated and tested.
# The assay mixture consisted of 50 μL of the cell homogenate, 10 μL of the test compound, and 40 μL of anandamide [1-^3H-ethanolamine] (^3H-AEA, Perkin-Elmer, 10.3 Ci/mmol), which was added last, for a final tracer concentration of 80 nM. The reaction mixture was incubated at rt for 1 h. During the incubation, 96-well Multiscreen filter plates (catalog number MAFCNOB50; Millipore, Bedford, Mass., USA) were loaded with 25 μL of activated charcoal (Multiscreen column loader, catalog number MACL09625, Millipore) and washed once with 100 μL of MeOH. […] After the 1 h incubation, 60 μL of the reaction mixture were transferred to the charcoal plates, which were then assembled on top of the DYNEX plates using Centrifuge Alignment Frames (catalog number MACF09604, Millipore). The unbound labeled ethanolamine was centrifuged through to the bottom plate (5 min at 2000 rpm), which was preloaded with the scintillant, as described above. The plates were sealed and left at rt for 1 h before counting on a Hewlett Packard TopCount.
# FAAH [1] = target: T2, FAAH (Homo sapiens, UniProt O00519); assay: Assay Method 1B: FAAH assay, 3H-anandamide hydrolysis in cell homogenate (T84 or SK-N-MC cells transfected with human FAAH); type: biochemical; set-up: expressed in transfected cells; conditions: 3H-AEA 80 nM, rt 1 h, pH 9
# T2 sequence (O00519 1-579): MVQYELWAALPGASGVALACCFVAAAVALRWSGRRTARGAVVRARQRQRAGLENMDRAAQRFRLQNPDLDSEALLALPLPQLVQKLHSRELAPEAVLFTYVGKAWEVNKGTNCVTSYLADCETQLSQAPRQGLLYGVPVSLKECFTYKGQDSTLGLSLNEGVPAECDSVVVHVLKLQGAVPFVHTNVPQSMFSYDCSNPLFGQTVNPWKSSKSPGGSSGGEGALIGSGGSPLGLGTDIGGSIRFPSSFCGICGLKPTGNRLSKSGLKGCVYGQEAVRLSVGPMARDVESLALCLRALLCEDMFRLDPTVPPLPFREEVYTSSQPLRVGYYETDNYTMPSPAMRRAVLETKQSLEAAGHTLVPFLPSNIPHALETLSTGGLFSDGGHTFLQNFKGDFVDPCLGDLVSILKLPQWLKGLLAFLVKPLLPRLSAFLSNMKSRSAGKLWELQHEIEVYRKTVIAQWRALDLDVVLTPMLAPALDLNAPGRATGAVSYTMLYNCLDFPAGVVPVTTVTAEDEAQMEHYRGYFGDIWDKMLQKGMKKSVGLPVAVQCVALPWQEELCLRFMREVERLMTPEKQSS
# Description: as §1, with “Transfection of Cells with Human FAAH A 10-cm” for “A 10-cm”, “electrodes. Supercoiled human FAAH cDNA” for “electrodes. Supercoiled rat FAAH cDNA”, “and tested. […] The reaction mixture was incubated at rt for 1 h. During the incubation, 96-well Multiscreen filter plates (catalog number MAFCNOB50; Millipore, Bedford, Mass., USA) were loaded with 25 μL of activated charcoal (Multiscreen column loader, catalog number MACL09625, Millipore) and washed once with 100 μL of MeOH. Also during the incubation, 96-well DYNEX MicroLite plates (catalog number NL510410) were loaded with 100 μL of MicroScint40 (catalog number 6013641, Packard Bioscience, Meriden, Conn., USA). After the 1 h incubation, 60 μL of the reaction mixture were transferred to the charcoal plates, which were then assembled on top of the DYNEX plates using Centrifuge Alignment Frames (catalog number MACF09604, Millipore). The unbound labeled ethanolamine was centrifuged through to the bottom plate (5 min at 2000 rpm), which was preloaded with the scintillant, as described above. The plates were sealed and left at rt for 1 h before counting on a Hewlett Packard TopCount.” for “and tested.”
# FAAH [2] = target: T3, FAAH (Rattus norvegicus, UniProt P97612); assay: Assay Method 1A: FAAH enzyme assay, 14C-oleamide hydrolysis, solubilized liver plasma membrane extract;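 also: ki obtained by Dixon analysis, taking the x-intercept of inhibitor concentration versus reciprocal rate plots at fixed substrate level and correcting for substrate concentration relative to Km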
# T3 sequence (P97612 1-579): T1 sequence (P97612 1-579)
# Description: Linear least squares fits were used for all reaction progress curves and R^2 values were consistently >0.97. […] Ki values were determined by the Dixon Method (x-intercepts of weighted linear fits of [I] versus 1/rate plots at constant substrate concentration, which were converted to Ki values using the formula Ki=−xint/[1+[S]/Km]).
SMILES,pIC50 (Rat FAAH),pIC50 (FAAH [1]),pKi (FAAH [2])
"Nc1ccc(-c2cnc(C(=O)CCCCCCc3ccccc3)o2)cc1 [Example 29, 1-(5-(4-Aminophenyl)oxazol-2-yl)-7-phenylheptan-1-one]",6.01,6.55,
"COc1ncc(-c2cnc(C(=O)CCCCCCc3ccccc3)o2)c(OC)n1 [Example 53, 1-(5-(2,4-Dimethoxypyrimidin-5-yl)oxazol-2-yl)-7-phenylheptan-1-one]",,,7.59
"O=C(CCCCCCc1ccccc1)c1ncc(-c2cc(C(F)(F)F)ccn2)o1 [Example 47, 7-Phenyl-1-(5-(4-(trifluoromethyl)pyridin-2-yl)oxazol-2-yl)heptan-1-one]",,,8.40
"Cc1cccc(-c2cnc(C(=O)CCCCCCc3ccccc3)o2)n1 [Example 41, 1-(5-(6-Methylpyridin-2-yl)oxazol-2-yl)-7-phenylheptan-1-one]",,,8.52
"COc1ccc(-c2cnc(C(=O)CCCCCCc3ccccc3)o2)cc1 [Example 15, 1-(5-(4-Methoxyphenyl)oxazol-2-yl)-7-phenylheptan-1-one]",5.40,6.11,
"O=C(CCCCCCc1ccccc1)c1ncc(-c2ccc(C(=O)C(F)(F)F)cc2)o1 [Example 6, 7-Phenyl-1-(5-(4-(2,2,2-trifluoroacetyl)phenyl)oxazol-2-yl)heptan-1-one]",5.77,6.59,
"COc1cc(-c2cnc(C(=O)CCCCCCc3ccccc3)o2)nc(OC)n1 [Example 51, 1-(5-(2,6-Dimethoxypyrimidin-4-yl)oxazol-2-yl)-7-phenylheptan-1-one]",,,8.30
"O=C(CCCCCCc1ccccc1)c1ncc(-c2c[nH]c(=O)[nH]c2=O)o1 [Example 54, 5-(2-(7-Phenylheptanoyl)oxazol-5-yl)pyrimidine-2,4(1H,3H)-dione]",7.33,5.10,
"COc1ccnc(-c2cnc(C(=O)CCCCCCc3ccccc3)o2)c1 [Example 45, 1-(5-(4-Methoxypyridin-2-yl)oxazol-2-yl)-7-phenylheptan-1-one]",,,8.70
"NC(=O)c1cccc(-c2cnc(C(=O)CCCCCCc3ccccc3)o2)c1 [Example 8, 3-(2-(7-Phenylheptanoyl)oxazol-5-yl)benzamide]",7.47,7.92,
"NS(=O)(=O)c1ccccc1-c1cnc(C(=O)CCCCCCc2ccccc2)o1 [Example 19, 2-(2-(7-Phenylheptanoyl)oxazol-5-yl)benzenesulfonamide]",,5.70,5.82
"NC(=O)c1ccccc1-c1cnc(C(=O)CCCCCCc2ccccc2)o1 [Example 7, 2-(2-(7-Phenylheptanoyl)oxazol-5-yl)benzamide]",5.74,6.80,
"O=C(CCCCCCc1ccccc1)c1ncc(-c2ncccc2C(=O)O)o1 [Example 40, 2-(2-(7-Phenylheptanoyl)oxazol-5-yl)nicotinic acid]",,,< 7.30
"COc1ccccc1-c1cnc(C(=O)CCCCCCc2ccccc2)o1 [Example 13, 1-(5-(2-Methoxyphenyl)oxazol-2-yl)-7-phenylheptan-1-one]",,5.72,6.40
"N#Cc1cccc(-c2cnc(C(=O)CCCCCCc3ccccc3)o2)c1 [Example 17, 3-(2-(7-Phenylheptanoyl)oxazol-5-yl)benzonitrile]",6.28,8.05,
"COC(=O)c1ccnc(-c2cnc(C(=O)CCCCCCc3ccccc3)o2)c1 [Example 35, Methyl 2-(2-(7-phenylheptanoyl)oxazol-5-yl)isonicotinate]",,,9.00
"N#Cc1ccnc(-c2cnc(C(=O)CCCCCCc3ccccc3)o2)c1 [Example 46, 2-(2-(7-Phenylheptanoyl)oxazol-5-yl)isonicotinonitrile]",,,8.70
"NC(=O)c1ccc(-c2cnc(C(=O)CCCCCCc3ccccc3)o2)cc1 [Example 9, 4-(2-(7-Phenylheptanoyl)oxazol-5-yl)benzamide]",7.22,8.00,
"Nc1ccnc(-c2cnc(C(=O)CCCCCCc3ccccc3)o2)c1 [Example 49, 1-(5-(4-Aminopyridin-2-yl)oxazol-2-yl)-7-phenylheptan-1-one]",,,7.60
"O=C(CCCCCCc1ccccc1)c1ncc(-c2cccc(C(=O)C(F)(F)F)c2)o1 [Example 5, 7-Phenyl-1-(5-(3-(2,2,2-trifluoroacetyl)phenyl)oxazol-2-yl)heptan-1-one]",6.30,7.40,
"Cc1ccnc(-c2cnc(C(=O)CCCCCCc3ccccc3)o2)c1 [Example 43, 1-(5-(4-Methylpyridin-2-yl)oxazol-2-yl)-7-phenylheptan-1-one]",,,9.00
"O=C(CCCCCCc1ccccc1)c1ncc(-c2cc([N+](=O)[O-])ccn2)o1 [Example 48, 1-(5-(4-Nitropyridin-2-yl)oxazol-2-yl)-7-phenylheptan-1-one]",,,8.52
"Cc1cccnc1-c1cnc(C(=O)CCCCCCc2ccccc2)o1 [Example 44, 1-(5-(3-Methylpyridin-2-yl)oxazol-2-yl)-7-phenylheptan-1-one]",,,7.82
"Cc1ccc(-c2cnc(C(=O)CCCCCCc3ccccc3)o2)nc1 [Example 42, 1-(5-(5-Methylpyridin-2-yl)oxazol-2-yl)-7-phenylheptan-1-one]",,,8.52
